Results: patent US9770526B2, “Absorbent article” (priority 2011, dated 2017)
Where two headings read alike, the source gives them in different places.

Key:
[1] = Water solubility in 100 g of water at 25° C.
Description: As used herein, the term “solubility” in regard to water solubility includes cases where the sample completely dissolves in deionized water to form a homogeneous mixture, and cases where the sample is completely emulsified. As used herein, “completely” means that no mass of the sample remains in the deionized water.

[2] = Rewetting rate of sanitary napkin; conditions: Example 2: agent coated on top sheet only, about 5 g/m^2; horse EDTA blood
Procedure: (obtained by adding ethylenediaminetetraacetic acid (hereunder, “EDTA”) to horse blood to prevent coagulation) was dropped through the hole using a pipette (once), and after 1 minute, 3 g of horse EDTA blood at 37±1° C. was again added dropwise through the acrylic board hole with a pipette (twice).
After the second dropping of blood, the acrylic board was immediately removed and 10 sheets of filter paper (50 mm×35 mm) were placed on the location where the blood had been dropped, and then a weight was placed thereover to a pressure of 30 g/cm^2. After 1 minute, the filter paper was removed and the “rewetting rate” was calculated by the following formula. Rewetting rate (%)=100×(filter paper mass after test−initial filter paper mass)/6

[3] = Absorbent body migration rate; conditions: Example 2: agent coated on top sheet only, about 5 g/m^2; horse EDTA blood
Procedure: In addition to the rewetting rate evaluation, the “absorbent body migration rate” was also measured as the time until migration of blood from the top sheet to the absorbent body after the second dropping of blood. The absorbent body migration rate is the time from […].

[4] = Surface tension of blood containing blood modifying agent (pendant drop method); set-up: species or system sheep; conditions: Amount 0.10 mass %; measuring temperature 35° C.
Procedure: The surface tension of blood containing a blood modifying agent was measured by the pendant drop method, using a Drop Master500 contact angle meter by Kyowa Interface Science Co., Ltd. The surface tension was measured after adding a prescribed amount of blood modifying agent to sheep defibrinated blood, and thoroughly shaking. The measurement was accomplished automatically with a device, and the surface tension γ was determined by the following formula (see FIG. 8). γ=g×ρ×(de)^2×1/H The density ρ was measured at the temperatures listed in Table 6, according to JIS K 2249-1995, “Density test methods and density/mass/volume conversion tables”, “5. Vibrating density test method”. The measurement was accomplished using a DA-505 by Kyoto Electronics Co., Ltd.

Row | Molecule | Water solubility [1] | Rewetting rate (%) [2] | Absorbent body migration rate [3] | further results
1 | CCCCCCCC(=O)OCC(COC(=O)CCCCCCC)OC(=O)CCCCCCC [No. 2-8, Glycerin and fatty acid triester with octanoic acid (C8) as the entire fatty acid portion] |  | 0.3% | 3 s | Water solubility ([1]; in 100 g of water at 25° C., 24 hours, visual): <0.05 g
2 | Isopropyl citrate [No. 2-34] |  | 12.2% | 5 s | 
3 | Glycerin and fatty acid diester with octanoic acid as the fatty acid [No. 2-12] |  | 4.2% | 9 s | 
4 | Glycerin and fatty acid triester with 2-ethylhexanoic acid (CO as the entire fatty acid portion [No. 2-9] |  | 2.0% | 3 s | 
5 | CCCCCCCCCCCCCC(=O)OCCCCCCCCCCCC [No. 2-18, Ester of tetradecanoic acid (C14) and dodecyl alcohol (C12)] |  | 1.8% | 4 s | 
6 | CCCCCCCCCCCCOC(=O)CCCCCCCCCCC [No. 2-17, Ester of dodecanoic acid (C12) and dodecyl alcohol (C12)] |  | 1.8% | 5 s | Surface tension (mN/m) [4]: 58.8 mN/m
7 | Polypropylene glycol [No. 2-35] |  |  |  | Water solubility (g) [1]: 0.05< g
8 | CCCCCCCCOC(=O)CCCCC(=O)OCCCCCCCC [No. 2-16, Dioctyl adipate] |  | 1.7% | 6 s | 
9 | CCCCCCCCCCCC(=O)OCC(O)CO (stereo not drawn) [No. 2-31, lauric acid monoglyceride] |  | 6.2% |  | 

The next lines start with results.

Row | Water solubility [1] | Molecule | Rewetting rate (%) [2] | Absorbent body migration rate [3] | further results
10 | <0.05 g | Polypropylene glycol [No. 2-20] |  |  | 
11 | <0.05 g | Polyoxybutylenepolyoxypropylene glycol [No. 2-24] |  |  | 
12 | <0.05 g | Polypropylene glycol [No. 2-22] |  |  | 
13 | <0.05 g | Polypropylene glycol [No. 2-19] |  |  | 
14 | <0.05 g | CCCCC(CC)C(=O)OCC(C)(C)COC(=O)C(CC)CCCC (stereo not drawn) [No. 2-15, Neopentylglycol di-2-ethylhexanoate] | 2.0% | 5 s | 
15 | <0.05 g | Polypropylene glycol [No. 2-21] |  |  | 
16 | <0.05 g | Polybutylene glycol [No. 2-23] |  |  | 
